Test results from ChEMBL document CHEMBL3763135, “Synthesis and evaluation of thiophene-based guanylhydrazones (iminoguanidines) efficient against panel of voriconazole-resistant fungal isolates” (Bioorg Med Chem, 2016).
Calls of active or inactive are those of the source. The calls are words filed in the database; no cut-off is given here.

Columns and labels:
Candida albicans [1] = assay: Induction of DNA intercalation with Candida albicans genomic DNA at 25 ug/ml after 12 hrs by ethidium bromide staining based gel electrophoresis method
Aspergillus fumigatus = assay: Antifungal activity against Aspergillus fumigatus ATCC 13073 by broth dilution method; assay type: functional
[2] = Induction of membrane damage in PC/PS/E liposome assessed as calcein release at MIC after 30 mins by fluorescence-based liposome leakage assay; assay type: functional
Candida parapsilosis [3] = assay: Antibiofilm activity against Candida parapsilosis C27 assessed as disruption of preformed biofilm after 24 hrs by concanavalin A-FITC-staining based fluorescence microscopic analysis; assay type: functional
Candida albicans [4] = assay: Antifungal activity against Candida albicans ATCC 10231 by broth dilution method; assay type: functional
Pichia kudriavzevii [5] = assay: Antifungal activity against Candida krusei ATCC 34135 by broth dilution method; assay type: functional
Candida albicans [6] = assay: Antifungal activity against Candida albicans CA5 by broth dilution method; assay type: functional
Pichia kudriavzevii [7] = assay: Antibiofilm activity against Pichia kudriavzevii ATCC 34135 assessed as disruption of preformed biofilm after 24 hrs by concanavalin A-FITC-staining based fluorescence microscopic analysis; assay type: functional
Candida albicans [8] = assay: Antibiofilm activity against Candida albicans assessed as inhibition of Spider medium-induced hyphae formation at sub-MIC after 24 hrs by propidium iodide and FITC-conjugated concanavaline A staining based fluorescence microscopy; assay type: functional, organism-based
[9] = Hemolytic effect in sheep RBC assessed as release of hemoglobin at MIC after 1 hr; assay type: ADME, cell-based, Ovis aries, Erythrocyte; details: sheep red blood cells, read-out: Activity
Candida albicans [10] = assay: Antibiofilm activity against Candida albicans ATCC 10231 assessed as disruption of preformed biofilm after 24 hrs by concanavalin A-FITC-staining based fluorescence microscopic analysis; assay type: functional
MRC5 = assay: Cytotoxicity against human MRC5 cells after 48 hrs by MTT assay; assay type: cell-based; details: MRC5, 48 h
[11] = tested on: Trichophyton mentagrophytes; assay: Antifungal activity against Trichophyton mentagrophytes DMT4 by broth dilution method; assay type: functional
Candida parapsilosis [12] = assay: Antifungal activity against Candida parapsilosis C27 by broth dilution method; assay type: functional; details: Lodderomyces parapsilosis
[13] = Hemolytic effect in sheep RBC assessed as release of hemoglobin at cytotoxic IC50 after 1 hr; assay type: cell-based, Ovis aries, Erythrocyte; details: sheep red blood cells, read-out: Activity
Microsporum canis = assay: Antifungal activity against Microsporum canis DMT2 by broth dilution method; assay type: functional
Fusarium oxysporum = assay: Antifungal activity against Fusarium oxysporum AB18 by broth dilution method; assay type: functional
[14] = Selectivity index, ratio of IC50 for human MRC5 cell to MIC for Candida albicans CA5

Activity (Candida albicans [1]) | MIC (Aspergillus fumigatus) [µg/mL] | MIC (Candida albicans [4]) [µg/mL] | MIC (Pichia kudriavzevii [5]) [µg/mL] | MIC (Candida albicans [6]) [µg/mL] | MIC [11] [µg/mL] | MIC (Candida parapsilosis [12]) [µg/mL] | MIC (Microsporum canis) [µg/mL] | MIC (Fusarium oxysporum) [µg/mL] | SMILES | Activity [2] [%] | MBEC (Candida parapsilosis [3]) [µg/mL] | MBEC (Pichia kudriavzevii [7]) [µg/mL] | Activity (Candida albicans [8]) | hemolysis at 1 h [9] [%] | MBEC (Candida albicans [10]) [µg/mL] | IC50 (MRC5) [µg/mL] | hemolysis at 1 h [13] [%] | Selectivity Index [14]
Active | 25 | 3.9 | 50 | 0.25 | 0.25 | 50 | 0.25 | > 250 | Cl.Cl.N=C(N)N/N=C/c1ccc(-c2ccc(-c3ccc(/C=N/NC(=N)N)cc3)s2)cc1 | 7 | 1000 | 1000 | inactive | ≤ 10 | 250 | 5 | ≤ 10 | 20
Active | 25 | 3.9 | 6.25 | 1.95 | 1.56 | 6.25 | 0.97 | > 250 | Cl.N=C(N)N/N=C/c1ccc(-c2ccc(F)cc2)s1 | – | >1000 | >1000 | Active | ≤ 10 | >1000 | 4 | ≤ 10 | –
